According to patent US12502440B2, “Cross-linking compounds and methods of use thereof” (North Carolina State University, priority 2019, dated 2025):

Target: T1, β-glucosidase from Agrobacterium (Agrobacterium sp., UniProt P12614)
T1 construct: purchased Megazyme
T1 sequence (P12614 1-459): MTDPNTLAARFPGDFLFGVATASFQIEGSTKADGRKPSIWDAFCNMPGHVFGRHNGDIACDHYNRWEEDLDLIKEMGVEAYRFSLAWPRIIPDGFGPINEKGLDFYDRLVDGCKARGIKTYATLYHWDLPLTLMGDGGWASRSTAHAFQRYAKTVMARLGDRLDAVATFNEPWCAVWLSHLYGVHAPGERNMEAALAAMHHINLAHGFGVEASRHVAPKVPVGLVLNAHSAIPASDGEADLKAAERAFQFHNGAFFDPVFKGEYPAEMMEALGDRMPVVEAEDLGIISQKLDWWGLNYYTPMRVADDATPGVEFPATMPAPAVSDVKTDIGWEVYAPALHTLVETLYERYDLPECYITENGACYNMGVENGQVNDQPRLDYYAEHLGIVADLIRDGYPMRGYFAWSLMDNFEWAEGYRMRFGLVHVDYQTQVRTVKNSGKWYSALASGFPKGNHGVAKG
Assay: Oligomerization of bis(indoxyl-glucoside) 46 with β-glucosidase from Agrobacterium
Format: biochemical
Conditions: precipitate from 300 μM of 46 suspended in H2O
Procedure: Oligomerization of 46 was carried out by treatment with β-glucosidase from Agrobacterium (200 nM) in 10 mM phosphate buffer (pH 7) at 37° C. for 2-4 h (Scheme 9). Precipitation occurred during the reaction. After centrifugation, the precipitate was separated from the supernatant, washed with H2O, and dried to afford a blue solid.
The efficacy of the indigogenic oligomerization was examined under a variety of conditions. As shown in entries 1˜4 in Table 2, the yield of indigoid dye in the supernatant versus precipitate reversed as the concentration of 46 was decreased from 300 to 10 μM, although the total yields were in the range 17-29%. While the reactions in entries 1˜4 were carried out in phosphate buffer containing NaCl (0.05 M), those of entries 5 and 6 (with 300 and 50 μM of 46, respectively) were conducted in NaCl-free phosphate buffer. The use of NaCl-free phosphate buffer facilitated extraction of the indigoid dye in the supernatant for analysis.
The time course of the oligomerization was examined under the reaction conditions listed in entry 5 of Table 2, with 300 μM of 46. Noticeable changes include observation of blue clouding and color deepening at 20 min. Centrifugation enabled isolation of the precipitate. […] The absorption spectrum of the precipitate was examined in DMF/DMSO (9:1) and compared with that of the extracted supernatant (in DMF) and 43 (in DMF) (FIG. 10D). […]

## O=S(=O)([O-])CCC[N+]1(CCCO)CCN(c2nc(OCCOCCOCCOc3c(Br)cc4[nH]cc(O[C@@H]5O[C@H](CO)[C@@H](O)[C@H](O)[C@H]5O)c4c3Br)nc(OCCOCCOCCOc3c(Br)cc4[nH]cc(O[C@@H]5O[C@H](CO)[C@@H](O)[C@H](O)[C@H]5O)c4c3Br)n2)CC1 [compound 46]
  particle size of precipitate by DLS (number mean): ~680 nm
